{"source": "patent US6489098B1", "about": "“Means and methods for monitoring nucleoside reverse transcriptase inhibitor antiretroviral therapy and guiding therapeutic decisions in the treatment of HIV/AIDS” (ViroLogic, Inc., priority 1998, dated 2002)", "key": {"[1]": {"system": "HIV with RT Leu74→Val mutation", "settings": "cited from earlier work"}, "[2]": {"system": "HIV with M41L, L210W, T215Y plus M184V", "settings": "cited from earlier work"}, "[3]": {"system": "HIV-1 RT mutant resistance test vector M41L-T69SSA-T215Y-L210W-RTV", "assay": "Phenotypic susceptibility assay, site directed RTV M41L+T69SSA+L210W+T215Y", "assay_type": "cell-based", "settings": "L210W introduced with M41L+T69SSA+T215Y", "procedure": "Resistance tests were carried out with resistance test vectors using two host cell types. Resistance test vector viral particles were produced by a first host cell (the resistance test vector host cell) that was prepared by transfecting a packaging host cell with the resistance test vector and the packaging expression vector. The resistance test vector viral particles were then used to infect a second host cell (the target host cell) in which the expression of the indicator gene is measured.\nThe resistance test vectors containing a functional luciferase gene cassette were constructed and host cells were transfected with the resistance test vector DNA. The resistant test vectors contained patient-derived reverse transcriptase and protease sequences that were either susceptible or resistant to the antiretroviral agents, such as nucleoside reverse transcriptase inhibitors, non-nucleoside reverse transcriptase inhibitors and protease inhibitors. The resistance test vector viral particles produced by transfecting the resistance test vector DNA into host cells, either in the presence or absence of protease inhibitors, were used to infect target host cells grown either in the absence of NRTI or NNRTI or In the presence of increasing concentrations of the drug. The amount of luciferase activIty produced in infected target host cells in the presence of drug was compared to the amount of luciferase produced in infected target host cells in the absence of drug. […] The IC50 values were determined by plotting percent drug inhibition vs. log 10 drug concentration.\nHost cells were seeded in 10-cm-diameter dishes and were transfected several days after plating with resistance test vector plasmid DNA and the envelope expression vector. […] HIV capsid protein (p24) levels in the harvested cell culture media were determined by an EIA method as described by the manufacturer (SIAC; Frederick, Md.). […] The inhibitory effect of the drug was determined using the following equation: […]"}, "[4]": {"system": "patient RTV-757, RTV-844, RTV-937, RTV-964 and RTV-966 (4 or more AZT resistance mutations)", "assay": "Phenotypic susceptibility assay, patient isolates with AZT resistance-associated mutations", "assay_type": "cell-based, HIV-1", "procedure": "In these experiments patient-derived segment(s) corresponding to the HIV protease and reverse transcriptase coding regions were either patient-derived segments amplified by the reverse transcription-polymerase chain reaction method (RT-PCR) using viral RNA isolated from viral particles present in the serum of HIV-infected individuals or were mutants of wild type HIV-1 made by site directed mutagenesis of a parental clone of resistance test vector DNA. Isolation of viral RNA was performed using standard procedures (e.g. RNAgents Total RNA Isolation System, Promega, Madison Wis. or RNAzol, Tel-Test, Friendswood, Tex.). The RT-PCR protocol was divided into two steps. A retroviral reverse transcriptase [e.g. Moloney MuLV reverse transcriptase (Roche Molecular Systems, Inc., Branchburg, N.J.), or avian myeloblastosis virus (AMV) reverse transcriptase, (Boehringer Mannheim, Indianapolis, Ind.)] was used to copy viral RNA into cDNA. […]\nResistance tests were carried out with resistance test vectors using two host cell types. […] The resistance test vector viral particles were then used to infect a second host cell (the target host cell) in which the expression of the indicator gene is measured. […]"}, "[5]": {"system": "HIV with RT mutation at codon 50", "settings": "mutation at codon 50, in vitro; cited from earlier work"}}, "note": "Entries after “also recorded” stand apart in the source; their conditions may differ.", "data": [{"smiles": "Nc1ccn([C@H]2CC[C@@H](CO)O2)c(=O)n1", "note": "[ddC, zalcitabine]", "values": [{"measurement": "fold reduction in sensitivity", "setting": "[1]", "value": "around ten-fold"}]}, {"smiles": "Nc1nc(NC2CC2)c2ncn([C@H]3C=C[C@@H](CO)C3)c2n1", "note": "[ABC, abacavir]", "values": [{"measurement": "fold reduction in susceptibility", "setting": "[2]", "value": "eight fold"}]}, {"smiles": "Cc1cn([C@H]2C[C@H](N=[N+]=[N-])[C@@H](CO)O2)c(=O)[nH]c1=O", "note": "[AZT, zidovudine]", "values": [{"measurement": "effect on susceptibility (words)", "setting": "[3]", "value": "substantial decrease in susceptibility to AZT"}]}, {"smiles": "Cc1cn([C@H]2C=C[C@@H](CO)O2)c(=O)[nH]c1=O", "note": "[d4T, stavudine]", "values": [{"measurement": "fold reduced susceptibility", "setting": "[4]; four patient viruses with 4 or more AZT resistance mutations (FIG. 6)", "value": "3-6 fold"}, {"measurement": "susceptibility compared to wild-type control RTV", "setting": "[4]; patient RTV pools with multiple AZT-resistance mutations", "value": "decrease in susceptibility to d4T; also recorded: significant decreases in susceptibility to d4T"}, {"measurement": "fold reduction in sensitivity", "setting": "[5]", "value": 30, "unit": "fold"}]}]}
